The text below walks through data of ChEMBL document CHEMBL4483862, “Open-source discovery of chemical leads for next-generation chemoprotective antimalarials” (2018).

The assay concerns Plasmodium berghei. Nature of the assay: Luciferase/luciferin-expressing antifolate-resistant parasites were used to infect a culture of HepG2 cells that were pre-incubated with compounds. Infected hepatocytes emit light due to the luciferase reaction. Assay results are presented as the percent inhibition of light emission compared to control. […]. It is filed as functional. Conditions: sporozoite; for IC50: read-out: LUCIFERASE INFECTION ASSAY - IC50; for IC90: read-out: LUCIFERASE INFECTION ASSAY - IC90.

Take `C=CCn1c(O)nnc1Sc1ncc([N+](=O)[O-])s1`: the IC50 (usually the concentration that gives 50% inhibition) was more than 11.6 µM and the IC90 (in general, the concentration needed for an effect of 90%) is more than 11.6 µM.
`Cn1c(S)nnc1-c1ccc(C(C)(C)C)cc1`: the IC50 was more than 13.3 µM and the IC90 is more than 13.3 µM.
Take `Cc1nc(C(N)=NOC(=O)c2c(-c3ccccc3Cl)noc2C)cs1`: the IC50 is more than 8.76 µM and the IC90 was more than 8.76 µM.
With `O=S(=O)(c1ccc2ccccc2c1)N1CCN(c2ncc(C(F)(F)F)cc2Cl)CC1`, the IC50 is more than 7.24 µM and the 90% effect concentration (IC90) was more than 7.24 µM.
In the case of `N#C/C(=N\Nc1ccc(Cl)cc1)C(=O)c1ccsc1`, the half-maximal inhibitory concentration (IC50) was more than 11.4 µM and the IC90 was more than 11.4 µM.
As for `CC(C)c1ccc(NC(=O)CSc2nccc(-c3csc(COc4ccccc4Cl)n3)n2)cc1`, the IC50 is more than 6.46 µM and the IC90 is more than 6.46 µM.
`CCCCCCCCCCCCSC(=S)c1c(C)[nH]n(-c2ccccc2)c1=O`: the IC50 was more than 7.88 µM and the IC90 is more than 7.88 µM.
Regarding `Cc1onc(-c2c(Cl)cccc2Cl)c1CO/N=C(\C#N)c1c(Cl)cccc1Cl`, the IC50 is more than 7.25 µM and the IC90 is more than 7.25 µM.
As for `CCOC(=O)c1c(S(N)(=O)=O)c(C)n(-c2ccccc2)c1C`, the IC50 is more than 10.2 µM and the 90% effect concentration (IC90) is more than 10.2 µM.
`Cc1onc(-c2c(Cl)cccc2Cl)c1NC(=O)Nc1ccc(Cl)cc1`: the IC50 turned out to be 0.334 µM and the IC90 worked out at 2.89 µM.
For `CC(C)c1ccc(-n2c(SCc3ccc(Cl)cc3)nnc2-c2ccc(C(C)(C)C)cc2)cc1` the same measures were more than 6.93 µM and more than 6.93 µM.
The like results for `CCn1nc(C)cc1-c1nnc(SCc2ccccc2)n1-c1cccc(C(F)(F)F)c1` were, in that order, more than 7.44 µM and more than 7.44 µM.
The like results for `COc1ccc(OCc2nc(-c3ccc4c(c3)C(C)(C)CCC4(C)C)cs2)cc1` were, in that order, more than 8.1 µM and more than 8.1 µM.
On to `O=[N+]([O-])c1cnc(Sc2nnc(-c3ccccc3)[nH]2)s1`, for which the IC50 was more than 10.8 µM and the IC90 was more than 10.8 µM.
On to `COc1ccc(-c2ccc(C=C(C#N)C#N)s2)cc1`, for which the IC50 was 0.403 µM and the IC90 is 0.914 µM.
For `CCCCCCCCCCCc1nnc(SCc2ccc(C)cc2)n1-c1ccccc1C(F)(F)F` the same measures were more than 6.55 µM and more than 6.55 µM.
For the compound `Cc1noc(/C=C/c2cc(C(F)(F)F)cc(C(F)(F)F)c2)c1[N+](=O)[O-]`, the IC50 was more than 9.01 µM and the concentration for an effect of 90% (IC90) was more than 9.01 µM.
As for `COC(=O)c1c(C)nn(C(=O)c2ccc(Cl)cc2)c1-c1snnc1C`, the IC50 was more than 8.76 µM and the IC90 was more than 8.76 µM.
`OC(c1ccccc1)c1cccs1` (stereo unspecified): the IC50 was more than 17.3 µM and the IC90 was more than 17.3 µM.
Take `Cc1oc(-c2ccc(Cl)cc2)cc1C(=O)Nc1cccc(C(F)(F)F)c1`: the concentration for half-maximal inhibition (IC50) is more than 8.69 µM and the IC90 was more than 8.69 µM.
On to `Cc1noc(-c2ccc(Cl)cc2)c1C(=O)ONC(=N)c1ccc(C(F)(F)F)cc1`, for which the IC50 was more than 7.79 µM and the IC90 is more than 7.79 µM.
On to `CC(C)(C)c1ccc(C(=O)NNC(=S)Nc2cccc(C(F)(F)F)c2)cc1`, for which the IC50 amounted to 7.4 µM and the IC90 is more than 8.34 µM.
For `Cc1noc(-c2ccc(C(F)(F)F)cc2)c1NC(=O)Nc1cc(Cl)cc(Cl)c1` the same measures were 0.395 µM and 1.05 µM.
`Cn1ccnc1Sc1cnc(SCC(=O)c2ccc(Cl)cc2)nc1-c1ccccc1`: the concentration for half-maximal inhibition (IC50) was more than 7.28 µM and the IC90 was more than 7.28 µM.
For the compound `COc1cc(NC(=S)Nc2ccc(Cl)cc2)cc(C(F)(F)F)c1`, the IC50 was more than 9.15 µM and the IC90 is more than 9.15 µM.
Consider `C=C1CC(=O)N(c2ccc(OC(F)(F)F)cc2)C1=O`, for which the IC50 is more than 12.2 µM and the concentration for an effect of 90% (IC90) was more than 12.2 µM.
Regarding `CCn1nc(C)c([N+](=O)[O-])c1C(=O)Sc1cccc(Br)c1`, the IC50 was more than 8.91 µM and the concentration for an effect of 90% (IC90) was more than 8.91 µM.
In the case of `N=C(Cc1ccc([N+](=O)[O-])cc1)NOC(=O)c1cccs1`, the IC50 is more than 10.8 µM and the IC90 is more than 10.8 µM.
On to `CC1C/C(=N\Nc2cc(Cl)cc(Cl)c2)c2cc(Cl)ccc2S1(=O)=O` (stereo unspecified), for which the IC50 was found to be 6.27 µM and the IC90 was more than 8.17 µM.
For `Cc1cc(C(=O)N/N=C/C(C)(C)C)nn1-c1ccc(C(C)C)cc1` the same measures were more than 10.1 µM and more than 10.1 µM.
Consider `CC(C)c1ccc(C2C3CCc4ccccc4C3=NN2C)cc1` (stereo unspecified), for which the IC50 is 0.0716 µM and the IC90 was determined as 0.553 µM.
For `CCOC(=O)Cc1nn(Cc2nc(-c3ccc(C(F)(F)F)cc3)cs2)c(=O)c2ccccc12` the same measures were more than 6.97 µM and more than 6.97 µM.
The like results for `O=C(Nc1ccc(Cl)cc1)Nc1nc(-c2cc(Cl)c(Cl)s2)cs1` were, in that order, 1.13 µM and 1.77 µM.
For `Cc1cc(C)c(CSCCNC2=CC(=O)CC(c3ccc(Cl)cc3)C2)c(C)c1` (stereo unspecified) the same measures were more than 7.97 µM and more than 7.97 µM.
For the compound `CC(C)(C)c1cc(C(=O)NNC(=O)Nc2cccc(C(F)(F)F)c2)n(Cc2ccccc2)n1`, the IC50 was more than 7.18 µM and the IC90 was more than 7.18 µM.
On to `O=C(Nc1ccc(-n2nc(C(F)(F)F)cc2C(F)(F)F)cc1)Nc1cc(Cl)cc(Cl)c1`, for which the IC50 came out at 1.83 µM and the 90% effect concentration (IC90) worked out at 2.08 µM.
For `CCOC(=O)c1c(S(=O)(=O)Nc2ccc(Cl)cc2)c(-c2ccccc2)n(-c2ccccc2)c1C` the same measures were 4.84 µM and more than 6.67 µM.
For `O=C(CC12CC3CC(CC(C3)C1)C2)Nc1ccc(C(F)(F)F)cc1` the same measures were more than 9.78 µM and more than 9.78 µM.
For `CCCCCc1ccc(-c2nnc(SCC(C)=O)[nH]2)cc1` the same measures were more than 10.9 µM and more than 10.9 µM.
In the case of `Cc1nnsc1-c1onc(C)c1C(=O)NC(=O)Nc1ccccc1`, the IC50 came to 4.69 µM and the IC90 is more than 9.61 µM.
The like results for `O=C(NNC(=S)Nc1cccc(C(F)(F)F)c1)c1ccc(OC(F)(F)F)cc1` were, in that order, more than 7.8 µM and more than 7.8 µM.
The like results for `O=C(Nc1ccc([N+](=O)[O-])cc1)n1nccc1-c1ccc(-c2cccs2)s1` were, in that order, 7.77 µM and more than 8.32 µM.
For `C=CCNC(=S)Nc1ccc(Oc2cc(C(F)(F)F)cc(C(F)(F)F)c2)cc1` the same measures were 3.04 µM and 6.91 µM.
Consider `FC(F)(F)c1ccc(/C=N/Nc2c(Cl)cc(C(F)(F)F)cc2Cl)cc1`, for which the IC50 was more than 8.23 µM and the IC90 was more than 8.23 µM.
In the case of `O=C(Nc1ccc(Oc2cccc3cccnc23)cc1)c1cccs1`, the IC50 is more than 9.53 µM and the IC90 was more than 9.53 µM.
Consider `O=C(Cc1cc(Br)sc1Br)Nc1cccc(C(F)(F)F)c1`, for which the IC50 was more than 7.45 µM and the IC90 is more than 7.45 µM.
Turning to `N=C(NOC(=O)Nc1ccc(OC(F)(F)F)cc1)c1cc(Cl)c(N)c(Cl)c1`, the IC50 is more than 7.8 µM and the IC90 is more than 7.8 µM.
As to `C#CCSc1nnc(-c2ccc(C(C)(C)C)cc2)n1-c1cccc(C(F)(F)F)c1`, the half-maximal inhibitory concentration (IC50) was more than 7.94 µM and the IC90 was more than 7.94 µM.
Take `COc1ccc2cc(/C(C)=N/OC(=O)Nc3cc(Cl)cc(Cl)c3)ccc2c1`: the IC50 was 4.08 µM and the IC90 was determined as 8.12 µM.
For `O=C(Nc1cccc(Cl)c1)n1nccc1-c1ccc(-c2cccs2)s1` the same measures were more than 8.55 µM and more than 8.55 µM.
The like results for `Cc1oc(C(C)(C)C)cc1C(=O)Nc1ccc([N+](=O)[O-])cc1` were, in that order, more than 10.9 µM and more than 10.9 µM.
The like results for `CC1=NN(c2ccc(C)cc2)C(=O)C1=C1SCCS1` were, in that order, 1.99 µM and more than 11.4 µM.
Turning to `CCN(CC)c1ccc(NC(=O)c2c(-c3c(Cl)cccc3Cl)noc2C)c(N(CC)CC)n1`, the IC50 was more than 6.73 µM and the IC90 is more than 6.73 µM.
As to `COc1ccc(C(=O)Nc2ccc(Oc3cc(C(F)(F)F)cc(C(F)(F)F)c3)cc2)cc1`, the IC50 was 0.486 µM and the IC90 stood at 2.35 µM.
With `CC(C)(C)c1cc(C(=O)NNC(=O)c2ccc(C(F)(F)F)cc2)n(Cc2ccccc2)n1`, the half-inhibitory concentration (IC50) is more than 7.42 µM and the IC90 is more than 7.42 µM.
As to `FC(F)Oc1ccc(-c2csc(COc3ccc(C4SCCS4)cc3)n2)cc1`, the concentration for half-maximal inhibition (IC50) worked out at 3.7 µM and the IC90 was more than 7.54 µM.
For `CCOC(=O)c1c(S(=O)(=O)Nc2cccc([N+](=O)[O-])c2)c(-c2ccccc2)n(-c2ccccc2)c1C`, the IC50 was more than 6.53 µM and the IC90 is more than 6.53 µM.
As to `CC(C)c1ccc(NC(=O)Nc2csc(Cc3c(Cl)cccc3Cl)n2)cc1`, the IC50 is more than 7.85 µM and the IC90 was more than 7.85 µM.
As to `O=C(Nc1cccc(C(F)(F)F)c1)c1ccc(-c2ccccc2F)cc1`, the IC50 is more than 9.18 µM and the IC90 was more than 9.18 µM.
For the compound `Cc1ccc(NC(=O)c2csc(Cc3c(Cl)cccc3Cl)n2)cc1`, the IC50 was more than 8.75 µM and the IC90 is more than 8.75 µM.
As to `O=C1Nc2ccccc2/C1=C/c1ccc(C(F)(F)F)cc1Cl`, the IC50 is more than 10.2 µM and the 90% effect concentration (IC90) is more than 10.2 µM.
As to `CC(C)c1ccc(-n2c(SCc3ccc([N+](=O)[O-])cc3)nnc2-c2ccc(C(C)(C)C)cc2)cc1`, the IC50 was more than 6.78 µM and the IC90 is more than 6.78 µM.
As for `CCCS(=O)(=O)/C(C#N)=C/c1ccc(-c2ccc(OC)cc2)s1`, the IC50 is 1.09 µM and the IC90 is 2.37 µM.
For `CCOC(=O)c1c(S(=O)(=O)Nc2ccccc2Cl)c(-c2ccccc2)n(-c2ccccc2)c1C`, the IC50 is more than 6.67 µM and the IC90 was more than 6.67 µM.
Take `CC(C)(C)C(=O)Nc1ccccc1Sc1ccc([N+](=O)[O-])c(Sc2ccccc2NC(=O)C(C)(C)C)n1`: the IC50 is more than 6.13 µM and the IC90 was more than 6.13 µM.
With `CC(C)(C)c1ccc(C(=O)Nc2ccc(C(F)(F)F)cc2)s1`, the IC50 is 0.561 µM and the IC90 amounted to 4.36 µM.
The like results for `CCOC(=O)c1nc(-c2ccc([N+](=O)[O-])o2)no1` were, in that order, more than 13 µM and more than 13 µM.
With `Cc1onc(-c2c(F)cccc2Cl)c1C(=O)Nc1ccc(Sc2ccccc2)nc1Sc1ccccc1`, the IC50 is 0.182 µM and the IC90 is 2.15 µM.
